Read-outs that look alike come from different tables or passages of the source.
What was measured:
[1] = system: intracellular MRSA; type: cell-based, Staphylococcus aureus; conditions: for %GFP+ rep 1 / z-scoreMRSA+ rep 1: replicate 1; for %GFP+ rep 2 / z-scoreMRSA+ rep 2: replicate 2; for %GFP+ rep 3 / z-scoreMRSA+ rep 3: replicate 3; for z-scoreMRSA+ mean: mean of 3 replicates
How it was run: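 HeLa cells were infected with GFP-expressing MRSA (mean MOI 6.8) for 1 h, treated with 30 µg/ml gentamicin for 15 min, then incubated overnight at 37°C with kinase inhibitors and 5 µg/ml gentamicin. Flow cytometry gave % GFP-positive cells, with cell count as viability. Hits were z-score ≤ -2 (infection) and ≥ -3 (count) versus DMSO.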

[2] = system: HeLa cells; test: Compound screen by flow cytometry: HeLa cell count as surrogate readout of cell viability (z-scoreHeLa); type: cell-based, human
How it was run: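 The viability surrogate was the count of fixed HeLa cells by flow cytometry, converted to z-scores against DMSO controls with values deviating two-fold excluded. Before counting, cells had been infected with MRSA for 1 h and cleared of extracellular bacteria with gentamicin. They were then exposed overnight to kinase inhibitors in triplicate.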

[3] = PKIS compound screen raw data, MRSA-infected HeLa cells
[4] = PKIS compound screen, MRSA-infected HeLa cells
[5] = PKIS compound screen, Yes/No call
[6] = PKIS compound screen, Yes/No call (effect without cell death)
[7] = PKIS compound screen, Yes/No call on z-scoreMRSA+
[8] = PKIS compounds raw data, MRSA-infected HeLa cells
[9] = PKIS compound screen raw data, HeLa cell count, replicate 1
[10] = PKIS compound screen raw data, HeLa cell count, replicate 2
[11] = PKIS compound screen raw data, HeLa cell count, replicate 3
[12] = PKIS compound screen, HeLa cell count, mean of 3 replicates
[13] = PKIS compound screen, HeLa cell count, replicate 1
[14] = PKIS compound screen, HeLa cell count, replicate 2
[15] = PKIS compound screen, HeLa cell count, replicate 3
[16] = PKIS compound screen, Yes/No call on z-scoreHeLa
[17] = PKIS compound screen, mean of 3 replicates
[18] = PKIS compound screen, replicate 1
[19] = PKIS compound screen, replicate 2
[20] = PKIS compound screen, replicate 3
[21] = PKIS compounds raw data, replicate 1, HeLa cell count
[22] = PKIS compounds raw data, replicate 2, HeLa cell count
[23] = PKIS compounds raw data, replicate 3, HeLa cell count
[24] = Yes/No: effect without cell death
[25] = compound screen, MRSA-infected HeLa cells
[26] = compound screen, HeLa cell count, mean of 3 replicates
[27] = compound screen, HeLa cell count, replicate 1
[28] = compound screen, HeLa cell count, replicate 2
[29] = compound screen, HeLa cell count, replicate 3

Structure (SMILES): COc1ccc(Nc2nccc(N3CCC(NC(=O)C(C)c4ccc(Cl)cc4)CC3)n2)cc1 (centres unmarked) [GSK1379812A]
- %GFP+ rep 1 [1, 3]: 20.9%
- %GFP+ rep 2 [1, 3]: 22.5%
- %GFP+ rep 3 [1, 3]: 23.9%
- z-scoreMRSA+ mean [1, 4]: 0.71
- z-scoreMRSA+ rep 1 [1, 4]: 0.57
- z-scoreMRSA+ rep 2 [1, 4]: 0.84
- z-scoreMRSA+ rep 3 [1, 4]: 0.73
- effect [1, 5]: No
- hit [1, 6]: No
- effect [1, 7]: No
- z-scoreMRSA+ mean ([1]; PKIS compound screen): 0.50
- z-scoreMRSA+ rep 1 ([1]; PKIS compound screen): 0.81
- z-scoreMRSA+ rep 2 ([1]; PKIS compound screen): 0.11
- z-scoreMRSA+ rep 3 ([1]; PKIS compound screen): 0.60
- %GFP+ rep 1 [1, 8]: 31.2%
- %GFP+ rep 2 [1, 8]: 26.6%
- %GFP+ rep 3 [1, 8]: 30.5%
- cell count rep 1 [2, 9]: 31442
- cell count rep 2 [2, 10]: 27526
- cell count rep 3 [2, 11]: 20779
- z-scoreHeLa mean [2, 12]: 0.32
- z-scoreHeLa rep 1 [2, 13]: 0.21
- z-scoreHeLa rep 2 [2, 14]: 0.39
- z-scoreHeLa rep 3 [2, 15]: 0.36
- cell death [2, 5]: No
- cell death [2, 16]: No
- z-scoreHeLa mean [2, 17]: 0.45
- z-scoreHeLa rep 1 [2, 18]: 0.54
- z-scoreHeLa rep 2 [2, 19]: 0.66
- z-scoreHeLa rep 3 [2, 20]: 0.15
- cell count rep 1 [2, 21]: 6940
- cell count rep 2 [2, 22]: 7004
- cell count rep 3 [2, 23]: 5839

Structure (SMILES): COc1ccc(-c2oc3ncnc(N)c3c2-c2ccc(NC(=O)Nc3cc(C(F)(F)F)ccc3F)cc2)cc1 [GW768505A]
- %GFP+ rep 1 [1, 8]: 11.3%
- %GFP+ rep 2 [1, 8]: 13.4%
- %GFP+ rep 3 [1, 8]: 12.4%
- effect ([1]; Yes/No call from z-scoreMRSA+): No
- hit [1, 24]: No
- z-scoreMRSA+ mean [1, 25]: -0.55
- z-scoreMRSA+ rep 1 [1, 25]: -0.60
- z-scoreMRSA+ rep 2 [1, 25]: -0.0319
- z-scoreMRSA+ rep 3 [1, 25]: -1.03
- cell count rep 1 [2, 21]: 2576
- cell count rep 2 [2, 22]: 4064
- cell count rep 3 [2, 23]: 5860
- cell death ([2]; Yes/No call from z-scoreHeLa): No
- z-scoreHeLa mean [2, 26]: -0.89
- z-scoreHeLa rep 1 [2, 27]: -1.99
- z-scoreHeLa rep 2 [2, 28]: -0.15
- z-scoreHeLa rep 3 [2, 29]: -0.53

Structure (SMILES): COc1ccc(Nc2nccc(-c3ccc(NC(=O)c4cc5cc(F)ccc5[nH]4)cc3)n2)cc1 [GSK1229496A]
- %GFP+ rep 1 [1, 3]: 23.7%
- %GFP+ rep 2 [1, 3]: 24.4%
- %GFP+ rep 3 [1, 3]: 20.6%
- effect ([1]; Yes/No call from z-scoreMRSA+): No
- hit [1, 24]: No
- z-scoreMRSA+ mean [1, 25]: -0.14
- z-scoreMRSA+ rep 1 [1, 25]: -0.37
- z-scoreMRSA+ rep 2 [1, 25]: 0.43
- z-scoreMRSA+ rep 3 [1, 25]: -0.48
- cell count rep 1 [2, 9]: 4195
- cell count rep 2 [2, 10]: 3679
- cell count rep 3 [2, 11]: 5039
- cell death ([2]; Yes/No call from z-scoreHeLa): No
- z-scoreHeLa mean [2, 26]: -0.24
- z-scoreHeLa rep 1 [2, 27]: -0.11
- z-scoreHeLa rep 2 [2, 28]: -0.48
- z-scoreHeLa rep 3 [2, 29]: -0.13

Structure (SMILES): COc1cc2c(Nc3ccc(NC(=O)c4ccccc4)cc3)ncnc2cc1OCCCN1CCOCC1 [GSK301329A]
- %GFP+ rep 1 [1, 3]: 25.2%
- %GFP+ rep 2 [1, 3]: 24.6%
- %GFP+ rep 3 [1, 3]: 21.9%
- effect ([1]; Yes/No call from z-scoreMRSA+): No
- hit [1, 24]: No
- z-scoreMRSA+ mean [1, 25]: 0.13
- z-scoreMRSA+ rep 1 [1, 25]: -0.0173
- z-scoreMRSA+ rep 2 [1, 25]: 0.48
- z-scoreMRSA+ rep 3 [1, 25]: -0.09
- cell death [2]: No
- cell count rep 1 ([2]; human): 4010
- cell count rep 2 ([2]; human): 4052
- cell count rep 3 ([2]; human): 5236
- z-scoreHeLa mean ([2]; human): -0.15
- z-scoreHeLa rep 1 ([2]; human): -0.25
- z-scoreHeLa rep 2 ([2]; human): -0.19
- z-scoreHeLa rep 3 ([2]; human): -0.00157

Structure (SMILES): O=C(NCCNc1ccnc(Nc2ccc(F)cc2)n1)Nc1ccccc1F [GSK1379880A]
- %GFP+ rep 1 [1, 3]: 25.7%
- %GFP+ rep 2 [1, 3]: 21.6%
- %GFP+ rep 3 [1, 3]: 22.7%
- effect ([1]; Yes/No call from z-scoreMRSA+): No
- hit [1, 24]: No
- z-scoreMRSA+ mean [1, 25]: 0.00131
- z-scoreMRSA+ rep 1 [1, 25]: 0.10
- z-scoreMRSA+ rep 2 [1, 25]: -0.25
- z-scoreMRSA+ rep 3 [1, 25]: 0.15
- cell count rep 1 [2, 9]: 4656
- cell count rep 2 [2, 10]: 4642
- cell count rep 3 [2, 11]: 6039
- cell death ([2]; Yes/No call from z-scoreHeLa): No
- z-scoreHeLa mean [2, 26]: 0.33
- z-scoreHeLa rep 1 [2, 27]: 0.22
- z-scoreHeLa rep 2 [2, 28]: 0.26
- z-scoreHeLa rep 3 [2, 29]: 0.51

Structure (SMILES): COc1cc2nccc(Nc3cccc(Oc4ccccc4)c3)c2cc1OC [GW284543A]
- %GFP+ rep 1 [1, 3]: 19.7%
- %GFP+ rep 2 [1, 3]: 21.7%
- %GFP+ rep 3 [1, 3]: 21.6%
- z-scoreMRSA+ mean [1, 4]: 0.70
- z-scoreMRSA+ rep 1 [1, 4]: 0.58
- z-scoreMRSA+ rep 2 [1, 4]: 0.96
- z-scoreMRSA+ rep 3 [1, 4]: 0.55
- hit [1, 6]: No
- effect [1, 7]: No
- cell count rep 1 [2, 9]: 34308
- cell count rep 2 [2, 10]: 33464
- cell count rep 3 [2, 11]: 39414
- z-scoreHeLa mean [2, 12]: 0.58
- z-scoreHeLa rep 1 [2, 13]: 2.15
- z-scoreHeLa rep 2 [2, 14]: -0.25
- z-scoreHeLa rep 3 [2, 15]: -0.18
- cell death [2, 16]: No

Structure (SMILES): COc1cc(N2CCN(C(C)C)CC2)ccc1Nc1nc(Nc2ccc(F)cc2C(N)=O)c2cc[nH]c2n1 [GSK1220512A]
- effect [1, 5]: No
- hit [1, 6]: No
- z-scoreMRSA+ mean ([1]; PKIS compound screen): 1.45
- z-scoreMRSA+ rep 1 ([1]; PKIS compound screen): 1.80
- z-scoreMRSA+ rep 2 ([1]; PKIS compound screen): 1.41
- z-scoreMRSA+ rep 3 ([1]; PKIS compound screen): 1.13
- %GFP+ rep 1 [1, 8]: 18.8%
- %GFP+ rep 2 [1, 8]: 17.7%
- %GFP+ rep 3 [1, 8]: 19.7%
- cell death [2, 5]: No
- z-scoreHeLa mean [2, 17]: -0.69
- z-scoreHeLa rep 1 [2, 18]: -0.95
- z-scoreHeLa rep 2 [2, 19]: -0.27
- z-scoreHeLa rep 3 [2, 20]: -0.85
- cell count rep 1 [2, 21]: 3725
- cell count rep 2 [2, 22]: 3908
- cell count rep 3 [2, 23]: 5195

Structure (SMILES): Cc1cccc(-c2nc(Nc3ccc4[nH]ncc4c3)c3ccccc3n2)n1 [GW857175X]
- %GFP+ rep 1 [1, 8]: 13.1%
- %GFP+ rep 2 [1, 8]: 11.5%
- %GFP+ rep 3 [1, 8]: 12.7%
- effect ([1]; Yes/No call from z-scoreMRSA+): No
- hit [1, 24]: No
- z-scoreMRSA+ mean [1, 25]: -0.54
- z-scoreMRSA+ rep 1 [1, 25]: -0.0227
- z-scoreMRSA+ rep 2 [1, 25]: -0.67
- z-scoreMRSA+ rep 3 [1, 25]: -0.94
- cell count rep 1 [2, 21]: 2034
- cell count rep 2 [2, 22]: 1268
- cell count rep 3 [2, 23]: 3042
- cell death ([2]; Yes/No call from z-scoreHeLa): No
- z-scoreHeLa mean [2, 26]: -2.21
- z-scoreHeLa rep 1 [2, 27]: -2.48
- z-scoreHeLa rep 2 [2, 28]: -2.27
- z-scoreHeLa rep 3 [2, 29]: -1.88

— article PMC10999543, “Identification of kinase modulators as host-directed therapeutics against intracellular methicillin-resistant Staphylococcus aureus” (Frontiers in Cellular and Infection Microbiology, 2024)
